According to PubChem BioAssay AID2060491 (Molecular Pharmacology Branch, DTP, NCI, 2025):
Where “and” joins values, the source holds several entries; their conditions need not be identical. Identical values can stand only once.

System: 857933-349-R-J2-PDC complex spheroids, viability
Assay: Anticancer human tumor 857933-349-R-J2-PDC patient-derived colon adenocarcinoma cell line growth inhibition [GQUAD]
Conditions: for viability, T/C: stronger effect = lower value
Excerpt: DNA G-quadruplex Stabilizer Agents in Combinations in Complex Spheroids
A high-throughput screen of multi-cell type tumor spheroids was designed to identify active combinations of DNA G-quadruplex stabilizer agents and targeted small molecules. Complex spheroids include a stromal component modeled by human endothelial cells (HUVEC) and fibroblasts modeled by human mesenchymal stem cells (MSCs). The concentration ranges selected for each drug and investigational agent were based upon clinically achievable concentrations if the clinical Cmax of the agent was known.
Compounds. The drugs and investigational agents: pidnarulex (CX-5461; NSC782164), APTO-253 (NSC789042), BRACO-19 (NSC847499), peposertib (NSC802822), ceralasertib (NSC780249), elimusertib (NSC800525), camonsertib (NSC841442), AZD-1390 (NSC803789), olaparib (NSC753686), talazoparib (NSC767125), ART-558 (NSC835418), sotorasib (NSC818433), MRTX-1133 (NSC836407), SN-38 (NSC673596), topotecan (NSC609699), etoposide (NSC141540), doxorubicin (NSC123127), gemcitabine (NSC613327), 5-fluorouracil (NSC19893), paclitaxel (NSC125973), vemurafenib (NSC761431), panobinostat (NSC761190), R-306465 (JNJ-16241199; NSC773264), adavosertib (NSC754352), TP-3654 (NSC805149), carboplatin (NSC241240), KSQ-4279 (NSC840948), and staurosporine (NSC755774) were obtained from the National Cancer Institute (NCI) Developmental Therapeutics Program Chemical Repository (34). The FDA-approved anticancer drug set is available from the NCI Developmental Therapeutics Program. […] The stock solutions were prepared in dimethyl sulfoxide (DMSO, Sigma-Aldrich, St. Louis, MO, cat. D2650) at 800-fold the tested concentration and stored at -70 degrees C prior to their use. All drugs and investigational agents were tested over a range starting from a high concentration at or near the clinical Cmax and decreasing in half-log increments. If the clinical Cmax for an agent had not been determined, the highest concentration tested was 10 microM.
2.3 Cell Culture. All cells were maintained in an incubator at 37 degrees C and 5% CO2 with 95% humidity. The PDC lines were cultured according to standard operating procedures established by the NCI PDMR. All PDCs were thawed and cultured in Matrigel-coated flasks prepared with a working solution of 1X Ham's F-12 nutrient mix, without supplementation (Invitrogen, cat. 11765054), 100 U/mL penicillin-streptomycin (Invitrogen, cat. 15140122), and 2.5% Matrigel (Corning Inc., cat. 354248) for the first three passages. The 857933-349-R-J2-PDC line was cultured in 6C/Colon 1B media, which includes advanced DMEM/F-12 (Thermo Fisher Scientific, cat. 12634028), 10 mM HEPES (Thermo Fisher Scientific, cat. 15630080), 1X GlutaMAX supplement (Thermo Fisher Scientific, cat. 35050061), 0.1 mg/mL primocin (InvivoGen, cat. ant-pm-2), 10% defined fetal bovine serum, heat inactivated (HyClone Laboratories Inc., cat. SH30070.03HI), 50% L-WRN conditioned media (ATCC, cat. CRL-3276), 1.25 mM N-Acetyl-L-cysteine (Sigma-Aldrich, cat. A9165), 10 mM nicotinamide (Sigma-Aldrich, cat. N0636), 1X B-27 supplement (Thermo Fisher Scientific, cat. 17504044), 1X N-2 supplement (Thermo Fisher Scientific, cat. 17502048), 10 microM Y-27632 dihydrochloride (Tocris Bioscience, cat. 1254), and 50 ng/mL human EGF recombinant protein (Thermo Fisher Scientific, cat. PHG0311). The 485176-168-R4-J1-PDC line was cultured in Panc media, which includes all 6C/Colon 1B media components plus 100 ng/mL human FGF-10 (Thermo Fisher Scientific, cat. 100-26), 500 nM SB-431542 (Selleckchem, cat. S1067), and gastrin (Tocris, cat. 3006).
[…]
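Note: spheroids exposed to compounds for one week before readout.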
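Throughout, for viability, T/C: percent viability relative to vehicle DMSO wells taken as 100%.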

## Cc1[nH]c2ccc(F)cc2c1-c1nc2c3cccnc3c3ncccc3c2[nH]1
Compound 0.0316 µM
  viability, T/C: 106% [middle of 12 runs]
Compound 0.1 µM
  viability, T/C: 107% [middle of 12 runs]
Compound 0.316 µM
  viability, T/C: 103% [middle of 12 runs]
Compound 1 µM
  viability, T/C: 104% [middle of 12 runs]
Compound 3.16 µM
  viability, T/C: 92.1% [middle of 12 runs]
Compound 10 µM
  viability, T/C: 95.5% [middle of 12 runs]
Compound alone, run of 02/20/2024
  IC50: > 10 µM
Compound alone, run of 02/26/2024
  IC50: > 10 µM

## CC1COCCN1c1cc(C2(S(C)(=N)=O)CC2)nc(-c2ccnc3[nH]ccc23)n1 (stereo not given)
Compound 0.0316 µM
  viability, T/C: 107% and 106% and 99%
Compound 0.1 µM
  viability, T/C: 96.8% and 99.1% and 94.2%
Compound 0.316 µM
  viability, T/C: 96.2% and 105% and 84.3%
Compound 1 µM
  viability, T/C: 68.3% and 92.9% and 61.6%
Compound 3.16 µM
  viability, T/C: 57.1% and 82.2% and 48.8%
Compound 10 µM
  viability, T/C: 47% and 65.2% and 39.2%
Curve of compound
  IC50: 7.38 µM and > 10 µM and 2.57 µM

## CC1COCCN1c1cc(C2(O)CC3CCC(C2)O3)c2cnn(-c3ccn[nH]3)c2n1 (stereo not given)
Compound 0.0316 µM
  viability, T/C: 68.6% and 76.9% and 98%
Compound 0.1 µM
  viability, T/C: 52% and 53% and 88.7%
Compound 0.316 µM
  viability, T/C: 43.7% and 48.3% and 77.2%
Compound 1 µM
  viability, T/C: 38.1% and 42% and 63.5%
Compound 3.16 µM
  viability, T/C: 46.3% and 45.1% and 55.5%
Compound 10 µM
  viability, T/C: 37.5% and 47.3% and 50.1%

## Cc1[nH]c2ccccc2c1CCNCc1ccc(/C=C/C(=O)NO)cc1 + CN(C)c1ccc(Nc2c3ccc(NC(=O)CCN4CCCC4)cc3nc3cc(NC(=O)CCN4CCCC4)ccc23)cc1
Curve of first compound, second compound 0.0316 µM
  IC50: > 0.316 µM
Curve of first compound, second compound 0.1 µM
  IC50: > 0.316 µM
Curve of first compound, second compound 0.316 µM
  IC50: > 0.316 µM
Curve of first compound, second compound 1 µM
  IC50: > 0.316 µM
Curve of first compound, second compound 3.16 µM
  IC50: > 0.316 µM
Curve of first compound, second compound 10 µM
  IC50: > 0.316 µM
Second compound 0.0316 µM, first compound 0.000999 µM
  viability, T/C: 105%
Second compound 0.0316 µM, first compound 0.00316 µM
  viability, T/C: 99.6%
Second compound 0.0316 µM, first compound 0.00999 µM
  viability, T/C: 109%
Second compound 0.0316 µM, first compound 0.0316 µM
  viability, T/C: 101%
Second compound 0.0316 µM, first compound 0.0999 µM
  viability, T/C: 109%
Second compound 0.0316 µM, first compound 0.316 µM
  viability, T/C: 60.2%
Second compound 0.1 µM, first compound 0.000999 µM
  viability, T/C: 105%
Second compound 0.1 µM, first compound 0.00316 µM
  viability, T/C: 102%
Second compound 0.1 µM, first compound 0.00999 µM
  viability, T/C: 99.3%
Second compound 0.1 µM, first compound 0.0316 µM
  viability, T/C: 103%
Second compound 0.1 µM, first compound 0.0999 µM
  viability, T/C: 101%
Second compound 0.1 µM, first compound 0.316 µM
  viability, T/C: 61.5%
Second compound 0.316 µM, first compound 0.000999 µM
  viability, T/C: 104%
Second compound 0.316 µM, first compound 0.00316 µM
  viability, T/C: 103%
Second compound 0.316 µM, first compound 0.00999 µM
  viability, T/C: 103%
Second compound 0.316 µM, first compound 0.0316 µM
  viability, T/C: 99.8%
Second compound 0.316 µM, first compound 0.0999 µM
  viability, T/C: 117%
Second compound 0.316 µM, first compound 0.316 µM
  viability, T/C: 60.5%
Second compound 1 µM, first compound 0.000999 µM
  viability, T/C: 97.1%
Second compound 1 µM, first compound 0.00316 µM
  viability, T/C: 91.7%
Second compound 1 µM, first compound 0.00999 µM
  viability, T/C: 95.7%
Second compound 1 µM, first compound 0.0316 µM
  viability, T/C: 97.9%
Second compound 1 µM, first compound 0.0999 µM
  viability, T/C: 105%
Second compound 1 µM, first compound 0.316 µM
  viability, T/C: 59.5%
Second compound 3.16 µM, first compound 0.000999 µM
  viability, T/C: 80.6%
Second compound 3.16 µM, first compound 0.00316 µM
  viability, T/C: 79.8%
Second compound 3.16 µM, first compound 0.00999 µM
  viability, T/C: 93.5%
Second compound 3.16 µM, first compound 0.0316 µM
  viability, T/C: 80.6%
Second compound 3.16 µM, first compound 0.0999 µM
  viability, T/C: 91.7%
Second compound 3.16 µM, first compound 0.316 µM
  viability, T/C: 55.1%
Second compound 10 µM, first compound 0.000999 µM
  viability, T/C: 64%
Second compound 10 µM, first compound 0.00316 µM
  viability, T/C: 73.2%
Second compound 10 µM, first compound 0.00999 µM
  viability, T/C: 70%
Second compound 10 µM, first compound 0.0316 µM
  viability, T/C: 76.4%
Second compound 10 µM, first compound 0.0999 µM
  viability, T/C: 72.2%
Second compound 10 µM, first compound 0.316 µM
  viability, T/C: 41.7%

## COc1ccc([C@@H](O)c2cc(-c3ncnc4cc(N5CCOCC5)ccc34)c(F)cc2Cl)nn1
Compound 0.0316 µM
  viability, T/C: 106% and 108% and 100%
Compound 0.1 µM
  viability, T/C: 90.5% and 103% and 89.7%
Compound 0.316 µM
  viability, T/C: 105% (2×) and 86%
Compound 1 µM
  viability, T/C: 82.6% and 98.4% and 79.4%
Compound 3.16 µM
  viability, T/C: 70.2% and 85.2% and 62%
Compound 10 µM
  viability, T/C: 56.8% and 59.8% and 48.4%
Curve of compound
  IC50: > 10 µM and 8.85 µM
